Data set [1] has as its target T1, human mGluR4 (Homo sapiens, UniProt Q14833). The class given is cell-based. As to conditions: for mGluR4 PAM activity (in words): human mGluR4.
The nature of data set [2]: Metabolic stability in human liver microsomes. The settings on record: parent remaining after the incubation period.
Data set [3] can be described thus: Metabolic stability in rat liver microsomes. The settings on record: parent remaining after the incubation period. On the technique in general: Microsomes from liver hold many membrane-bound enzymes, among them those of drug oxidation.
The target of data set [4] is T1, human mGluR4. The data set is described as follows: Fold shift of glutamate concentration-response curve, human mGluR4/Gqi5 cells. The settings on record: fold shift of glutamate response curve to the left.
In data set [5] the target is rat mGluR4 (Rattus norvegicus, UniProt P31423).
Data set [6] deals with mGluR8 (Homo sapiens, UniProt O00222). The data set is described as follows: mGluR subtype selectivity: mGluR8. The settings on record: for separation in potencies compared to mGluR4: mGluR8 vs mGluR4; for PAM activity at mGluR8 (in words): selectivity.
For data set [7], the target named is mGluR5 (Homo sapiens, UniProt P41594). Put plainly: mGluR subtype selectivity: mGluR5. The settings on record: for separation in potencies compared to mGluR4: mGluR5 vs mGluR4; for PAM activity at mGluR5 (in words): selectivity.
A short description of data set [8]: Rat pharmacokinetics, brain and plasma levels after intraperitoneal dosing. The settings on record: rats, nontoxic vehicles.

mGluR5, sequence (P41594 21-1212): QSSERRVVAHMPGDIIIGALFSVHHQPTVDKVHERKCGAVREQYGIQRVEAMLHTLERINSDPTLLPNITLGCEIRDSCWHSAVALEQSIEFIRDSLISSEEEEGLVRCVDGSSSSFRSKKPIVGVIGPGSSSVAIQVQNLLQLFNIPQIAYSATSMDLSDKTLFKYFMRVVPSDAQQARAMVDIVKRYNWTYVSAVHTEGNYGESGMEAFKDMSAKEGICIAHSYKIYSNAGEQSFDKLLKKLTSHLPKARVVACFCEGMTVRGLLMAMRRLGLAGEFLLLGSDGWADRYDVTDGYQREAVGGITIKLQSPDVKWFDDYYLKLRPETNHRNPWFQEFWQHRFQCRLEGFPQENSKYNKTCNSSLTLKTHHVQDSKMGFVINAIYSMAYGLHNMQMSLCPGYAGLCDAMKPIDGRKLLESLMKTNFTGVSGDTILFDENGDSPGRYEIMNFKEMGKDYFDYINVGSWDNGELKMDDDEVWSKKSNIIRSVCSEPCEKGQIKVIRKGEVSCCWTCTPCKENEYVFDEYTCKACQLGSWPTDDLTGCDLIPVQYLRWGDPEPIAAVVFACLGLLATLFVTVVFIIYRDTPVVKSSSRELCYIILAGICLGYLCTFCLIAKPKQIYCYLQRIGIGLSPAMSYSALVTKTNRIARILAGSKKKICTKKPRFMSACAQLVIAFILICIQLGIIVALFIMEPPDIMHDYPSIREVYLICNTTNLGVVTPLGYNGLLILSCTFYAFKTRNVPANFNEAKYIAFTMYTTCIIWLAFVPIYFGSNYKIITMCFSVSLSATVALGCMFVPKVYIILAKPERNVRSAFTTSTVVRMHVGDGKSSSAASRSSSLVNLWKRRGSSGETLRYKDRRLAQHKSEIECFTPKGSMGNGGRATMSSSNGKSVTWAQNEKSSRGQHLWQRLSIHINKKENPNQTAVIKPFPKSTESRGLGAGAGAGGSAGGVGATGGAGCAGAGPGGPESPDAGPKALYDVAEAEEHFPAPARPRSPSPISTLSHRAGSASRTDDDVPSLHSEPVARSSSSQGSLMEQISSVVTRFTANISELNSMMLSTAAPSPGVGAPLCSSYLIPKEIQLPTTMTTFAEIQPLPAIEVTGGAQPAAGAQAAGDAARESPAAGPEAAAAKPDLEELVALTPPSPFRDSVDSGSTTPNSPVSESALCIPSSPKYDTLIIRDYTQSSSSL
mGluR8, sequence (O00222 34-908, species assumed): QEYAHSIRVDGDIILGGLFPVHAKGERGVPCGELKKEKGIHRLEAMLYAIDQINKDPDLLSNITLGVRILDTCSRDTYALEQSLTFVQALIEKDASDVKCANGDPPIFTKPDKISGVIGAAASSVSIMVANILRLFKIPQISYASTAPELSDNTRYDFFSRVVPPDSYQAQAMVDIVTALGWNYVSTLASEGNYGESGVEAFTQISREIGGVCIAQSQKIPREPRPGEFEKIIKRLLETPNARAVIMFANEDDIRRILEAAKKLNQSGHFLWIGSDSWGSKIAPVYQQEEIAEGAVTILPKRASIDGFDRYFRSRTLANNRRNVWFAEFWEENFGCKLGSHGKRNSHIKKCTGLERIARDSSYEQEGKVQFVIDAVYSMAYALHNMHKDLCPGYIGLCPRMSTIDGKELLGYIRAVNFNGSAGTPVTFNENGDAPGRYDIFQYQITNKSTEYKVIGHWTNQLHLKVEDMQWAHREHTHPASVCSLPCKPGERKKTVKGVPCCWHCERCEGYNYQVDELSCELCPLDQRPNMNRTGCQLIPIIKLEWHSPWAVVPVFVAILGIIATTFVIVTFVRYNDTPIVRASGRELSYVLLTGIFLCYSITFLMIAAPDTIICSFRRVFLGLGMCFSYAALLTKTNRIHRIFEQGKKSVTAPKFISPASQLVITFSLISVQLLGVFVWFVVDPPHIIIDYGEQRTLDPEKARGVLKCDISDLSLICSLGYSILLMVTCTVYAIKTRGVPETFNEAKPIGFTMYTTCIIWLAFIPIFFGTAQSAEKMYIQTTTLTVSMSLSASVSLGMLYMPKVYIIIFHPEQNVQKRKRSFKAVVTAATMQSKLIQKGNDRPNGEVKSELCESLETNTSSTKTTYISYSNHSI
T1 sequence (Q14833 33-912): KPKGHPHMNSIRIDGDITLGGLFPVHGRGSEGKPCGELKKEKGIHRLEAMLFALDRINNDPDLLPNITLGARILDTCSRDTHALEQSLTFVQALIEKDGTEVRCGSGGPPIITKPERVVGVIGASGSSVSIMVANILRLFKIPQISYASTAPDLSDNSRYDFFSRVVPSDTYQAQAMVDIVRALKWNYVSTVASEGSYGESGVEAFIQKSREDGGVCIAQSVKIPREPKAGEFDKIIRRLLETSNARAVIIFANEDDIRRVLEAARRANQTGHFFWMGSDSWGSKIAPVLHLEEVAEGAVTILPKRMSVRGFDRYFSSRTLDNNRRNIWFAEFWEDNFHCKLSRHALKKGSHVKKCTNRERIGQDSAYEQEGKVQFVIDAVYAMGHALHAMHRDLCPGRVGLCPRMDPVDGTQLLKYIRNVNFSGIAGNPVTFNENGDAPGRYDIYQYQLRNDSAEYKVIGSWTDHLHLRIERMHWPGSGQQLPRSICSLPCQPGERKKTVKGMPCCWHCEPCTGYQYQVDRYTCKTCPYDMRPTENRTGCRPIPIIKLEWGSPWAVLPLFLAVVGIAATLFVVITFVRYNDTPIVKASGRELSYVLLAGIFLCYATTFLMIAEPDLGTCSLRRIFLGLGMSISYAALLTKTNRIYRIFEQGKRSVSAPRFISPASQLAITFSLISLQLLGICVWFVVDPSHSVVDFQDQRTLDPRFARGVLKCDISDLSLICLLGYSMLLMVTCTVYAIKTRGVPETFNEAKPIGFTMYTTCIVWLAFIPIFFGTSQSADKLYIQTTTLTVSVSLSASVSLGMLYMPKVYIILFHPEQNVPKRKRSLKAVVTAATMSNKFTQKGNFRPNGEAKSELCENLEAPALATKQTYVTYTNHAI
rat mGluR4, sequence (P31423 33-912): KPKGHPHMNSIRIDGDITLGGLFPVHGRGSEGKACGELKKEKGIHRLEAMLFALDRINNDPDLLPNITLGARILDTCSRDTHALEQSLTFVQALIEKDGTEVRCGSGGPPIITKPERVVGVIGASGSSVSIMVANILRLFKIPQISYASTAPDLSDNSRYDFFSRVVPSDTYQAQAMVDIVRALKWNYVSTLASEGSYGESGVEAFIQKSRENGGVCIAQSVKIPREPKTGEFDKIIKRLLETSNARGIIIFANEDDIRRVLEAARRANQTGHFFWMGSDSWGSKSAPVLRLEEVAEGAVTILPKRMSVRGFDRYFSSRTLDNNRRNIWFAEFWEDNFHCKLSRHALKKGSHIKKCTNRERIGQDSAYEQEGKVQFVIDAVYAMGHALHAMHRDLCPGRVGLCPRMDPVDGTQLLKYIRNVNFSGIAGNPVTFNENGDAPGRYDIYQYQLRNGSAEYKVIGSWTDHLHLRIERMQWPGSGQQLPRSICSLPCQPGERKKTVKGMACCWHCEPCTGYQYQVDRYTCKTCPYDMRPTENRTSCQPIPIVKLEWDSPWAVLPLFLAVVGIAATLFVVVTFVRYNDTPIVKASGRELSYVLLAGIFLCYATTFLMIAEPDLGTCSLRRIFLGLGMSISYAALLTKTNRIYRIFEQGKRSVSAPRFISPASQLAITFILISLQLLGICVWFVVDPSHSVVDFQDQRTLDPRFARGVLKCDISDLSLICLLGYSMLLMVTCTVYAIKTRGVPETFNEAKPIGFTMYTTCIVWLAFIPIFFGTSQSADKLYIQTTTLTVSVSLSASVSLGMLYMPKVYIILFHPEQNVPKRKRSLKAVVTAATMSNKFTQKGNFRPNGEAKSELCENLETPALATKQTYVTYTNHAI

With `COc1cc(NC(=O)c2ccccn2)ncn1` [Compound 9p], the “mGluR4 PAM activity (in words)” value in data set [1] was “inactive”.

As for `O=C(Nc1ccc(Cl)c(Cl)c1)c1ccncn1` [Compound 8l], in data set [1], the “mGluR4 PAM activity (in words)” value is recorded as “retained potency”.

Turning to `COc1cc(NC(=O)c2ccccn2)ccc1F` [Compound 9a], the “HLM (% remaining)” value in data set [2] stood at 3.0 % remaining. Further, the “RLM (% remaining)” value in data set [3] is 6.3 % remaining.

For the compound `O=C(Nc1ccc(Cl)c(Cl)c1)c1cnccn1` [Compound 8k], the “mGluR4 PAM activity (in words)” value in data set [1] is “lost activity”.

Regarding `O=C(Nc1ccc(Cl)c(Cl)c1)c1ccccc1` [Compound 8i], the “mGluR4 PAM activity (in words)” value in data set [1] is “inactive”.

In the case of `O=C(Nc1ccccc1)[C@]12C[C@H]1/C(=N\O)c1ccccc1O2` [Compound 1, (-)-PHCCC], the “FS (h)” value in data set [4] turned out to be 7.0±0.2.

Take `O=C(Nc1cccc(C(F)(F)F)c1)c1ccccn1` [Compound 9e]: the “RLM (% remaining)” value in data set [3] was 19 % remaining.

In data set [1] (9d (trifluoromethoxy) vs. 9c (difluoromethoxy)), `O=C(Nc1cccc(OC(F)(F)F)c1)c1ccccn1` [Compound 9d] had a loss of activity of more than 10 fold. Also, the “HLM (% remaining)” value in data set [2] stood at 22 % remaining. For the same compound, the “RLM (% remaining)” value in data set [3] was 20 % remaining.

As to `O=C(Nc1ccc(Cl)c(Cl)c1)C1CCCCC1` [Compound 8h], the “mGluR4 PAM activity (in words)” value in data set [1] was “inactive”.

Turning to `COc1cc(NC(=O)c2ccccn2)ccc1Cl` [Compound 9b], in data set [5], the “potency at rat mGluR4 (in words)” value is on record as “submicromolar potency”. In addition, the “mGluR4 PAM activity (in words)” value in data set [1] was “submicromolar potency”. For the same compound, in data set [6], the “separation in potencies compared to mGluR4” value is listed as more than 20 fold and the “PAM activity at mGluR8 (in words)” value is listed as “weak PAM activity”. In data set [2], the “HLM (% remaining)” value is 5.3 % remaining. Further, in data set [7], the “separation in potencies compared to mGluR4” value was more than 20 fold and the “PAM activity at mGluR5 (in words)” value is listed as “weak PAM activity”. For the same compound, in data set [3], the “RLM (% remaining)” value worked out at 1.8 % remaining. The “central penetration (in words)” value in data set [8] was “centrally penetrant”.

As to `O=C(Nc1cccc(OC(F)F)c1)c1ccccn1` [Compound 9c], in data set [5], the “potency at rat mGluR4 (in words)” value is reported as “submicromolar potency”. Further, the “mGluR4 PAM activity (in words)” value in data set [1] is on record as “submicromolar potency”. In data set [6], the “separation in potencies compared to mGluR4” value is given as more than 20 fold and the “PAM activity at mGluR8 (in words)” value is listed as “weak PAM activity”. Besides, the “HLM (% remaining)” value in data set [2] turned out to be 2.4 % remaining. For the same compound, in data set [7], the “separation in potencies compared to mGluR4” value was more than 20 fold and the “PAM activity at mGluR5 (in words)” value is “weak PAM activity”. For the same compound, in data set [3], the “RLM (% remaining)” value is reported as 1.4 % remaining. The “central penetration (in words)” value in data set [8] is reported as “centrally penetrant”.

As for `O=C(Nc1cccc(C(F)(F)F)n1)c1ccccn1` [Compound 9o], the “mGluR4 PAM activity (in words)” value in data set [1] was “inactive”.

(Values after paper PMC2765192 (Journal of medicinal chemistry, 2009).)
